Reference: paper PMC9161374 (Science Translational Medicine, 2022)
“And” between values parts separate entries of the source, which are not always exact repeats. Equal entries are not always repeated.

What was measured:
[1] = system: SARS-CoV-2 (Delta, B.1.617.2); experiment: microbe, parasite or virus in culture; format: cell-based; conditions: for % Inhibition: delta
[2] = system: SARS-CoV-2 (B.1); experiment: Anti-SARS-CoV-2 activity in Vero E6 cells (viral yield by qRT-PCR); format: cell-based
[3] = system: SARS-CoV-2 replicon system (pBAC-SARS-CoV-2-Replicon-Luc); experiment: microbe, parasite or virus in culture; format: cell-based; conditions: Severe acute respiratory syndrome coronavirus 2, HEK-293T, 60 h
[4] = system: SARS-CoV-2 (Beta, B.1.351); experiment: microbe, parasite or virus in culture; format: cell-based; conditions: for % Inhibition: beta
[5] = system: SARS-CoV-2 (B.1) in Huh7 cells; experiment: Anti-SARS-CoV-2 activity in Huh7 cells (viral yield by qRT-PCR); format: cell-based; conditions: B.1, MOI 0.05, 48 h
[6] = CCK-8 cell viability assay; format: cell-based, African green monkey; conditions: African green monkey; Vero E6 cells, 48 h, CCK8
How it was run: (§1)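 Vero E6 cells, 20,000/well, exposed to compound at 0–200 μM (0, 0.01, 0.1, 1, 5, 10, 50, 75, 100, 200 μM) for 48 h; viability read by CCK-8 and expressed as percentage versus drug concentration, mean ± SD.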

[7] = system: Vero E6 cells; experiment: CCK-8 cell viability assay; format: cell-based, African green monkey; conditions: individual replicate values, Fig.S4
How it was run: as §1

## CC(C)CC(=O)OC[C@H]1O[C@@](C#N)(c2ccc3c(N)ncnn23)[C@H](O)[C@@H]1O [ATV017]
[1]; Severe acute respiratory syndrome coronavirus 2, Vero C1008, 48 h, read-out: EC50 in Vero E6 cells, SARS-CoV-2 (Delta, B.1.617.2)
  EC50: 0.428 µM
[1]; Severe acute respiratory syndrome coronavirus 2, Vero C1008, delta, 0.01 uM, Vero E6, replicates
  inhibition at 0.01 µM: 0%
[1]; Severe acute respiratory syndrome coronavirus 2, Vero C1008, delta, 0.1 uM, Vero E6, replicates
  inhibition at 0.1 µM: 0%
[1]; Severe acute respiratory syndrome coronavirus 2, Vero C1008, delta, 0.25 uM, Vero E6, replicates
  inhibition at 0.25 µM: 0%
[1]; Severe acute respiratory syndrome coronavirus 2, Vero C1008, delta, 0.5 uM, Vero E6, replicates
  inhibition at 0.5 µM: 82.8%
[1]; Severe acute respiratory syndrome coronavirus 2, Vero C1008, delta, 1 uM, Vero E6, replicates
  inhibition at 1 µM: 90.3%
[1]; Severe acute respiratory syndrome coronavirus 2, Vero C1008, delta, 2 uM, Vero E6, replicates
  inhibition at 2 µM: 94.4%
[1]; Severe acute respiratory syndrome coronavirus 2, Vero C1008, delta, 5 uM, Vero E6, replicates
  inhibition at 5 µM: 93.9%
[1]; Severe acute respiratory syndrome coronavirus 2, Vero C1008, delta, 10 uM, Vero E6, replicates
  inhibition at 10 µM: 100%
[1]; Severe acute respiratory syndrome coronavirus 2, Vero C1008, read-out: EC90 (Confidence 95%), Vero-E6, Delta B.1.617.2
  EC90: 0.516 µM
[1]; 0.01 uM, Vero E6, replicates
  % Inhibition: 0%
[1]; 0.1 uM, Vero E6, replicates
  % Inhibition: 0%
[1]; 0.25 uM, Vero E6, replicates
  % Inhibition: 0%
[1]; 0.5 uM, Vero E6, replicates
  % Inhibition: 80.6558%
[1]; 1 uM, Vero E6, replicates
  % Inhibition: 88.2825%
[1]; 2 uM, Vero E6, replicates
  % Inhibition: 91.1914%
[1]; 5 uM, Vero E6, replicates
  % Inhibition: 90.8502%
[1]; 10 uM, Vero E6, replicates
  % Inhibition: 99.8554%
[1]; 50 uM, Vero E6, replicates
  % Inhibition: 99.5879%
[2]; 0.1 μM, replicates, sheet Fig.S3
  % Inhibition: 0%
[2]; 0.5 μM, replicates, sheet Fig.S3
  % Inhibition: 0%
[2]; 1 μM, replicates, sheet Fig.S3
  % Inhibition: 65.5016%
[2]; 2 μM, replicates, sheet Fig.S3
  % Inhibition: 89.9686%
[2]; 5 μM, replicates, sheet Fig.S3
  % Inhibition: 91.0527%
[2]; 10 μM, replicates, sheet Fig.S3
  % Inhibition: 91.8254%
[2]; B.1, 0.01 uM, Vero E6, replicates
  % Inhibition: 0%
[2]; B.1, 0.1 uM, Vero E6, replicates
  % Inhibition: 0%
[2]; B.1, 0.25 uM, Vero E6, replicates
  % Inhibition: 0%
[2]; B.1, 0.5 uM, Vero E6, replicates
  % Inhibition: 0%
[2]; B.1, 1 uM, Vero E6, replicates
  % Inhibition: 0%
[2]; B.1, 5 uM, Vero E6, replicates, 5 µM
  % Inhibition: 99.7611%
[2]; B.1, 10 uM, Vero E6, replicates, 10 µM
  % Inhibition: 99.9908%
[2]; B.1, 50 uM, Vero E6, replicates, 50 µM
  % Inhibition: 99.9887%
[2]; Severe acute respiratory syndrome coronavirus 2, Vero C1008, 0.1 μM, replicates, sheet Fig.S3
  inhibition at 0.1 µM: 0%
[2]; Severe acute respiratory syndrome coronavirus 2, Vero C1008, 0.5 μM, replicates, sheet Fig.S3
  inhibition at 0.5 µM: 0%
[2]; Severe acute respiratory syndrome coronavirus 2, Vero C1008, 1 μM, replicates, sheet Fig.S3
  inhibition at 1 µM: 62.2%
[2]; Severe acute respiratory syndrome coronavirus 2, Vero C1008, 2 μM, replicates, sheet Fig.S3
  inhibition at 2 µM: 89.2%
[2]; Severe acute respiratory syndrome coronavirus 2, Vero C1008, 5 μM, replicates, sheet Fig.S3
  inhibition at 5 µM: 92.3%
[2]; Severe acute respiratory syndrome coronavirus 2, Vero C1008, 10 μM, replicates, sheet Fig.S3
  inhibition at 10 µM: 93.6%
[2]; Severe acute respiratory syndrome coronavirus 2, Vero C1008, B.1, 0.01 uM, Vero E6, replicates
  inhibition at 0.01 µM: 0%
[2]; Severe acute respiratory syndrome coronavirus 2, Vero C1008, B.1, 0.1 uM, Vero E6, replicates
  inhibition at 0.1 µM: 0%
[2]; Severe acute respiratory syndrome coronavirus 2, Vero C1008, B.1, 0.25 uM, Vero E6, replicates
  inhibition at 0.25 µM: 0%
[2]; Severe acute respiratory syndrome coronavirus 2, Vero C1008, B.1, 0.5 uM, Vero E6, replicates
  inhibition at 0.5 µM: 0%
[2]; Severe acute respiratory syndrome coronavirus 2, Vero C1008, B.1, 1 uM, Vero E6, replicates
  inhibition at 1 µM: 0%
[2]; Severe acute respiratory syndrome coronavirus 2, Vero C1008, B.1, 5 uM, Vero E6, replicates
  inhibition at 5 µM: 99.6%
[2]; Severe acute respiratory syndrome coronavirus 2, Vero C1008, B.1, 10 uM, Vero E6, replicates
  inhibition at 10 µM: 99.9%
[2]; Severe acute respiratory syndrome coronavirus 2, Vero C1008, B.1, 50 uM, Vero E6, replicates
  inhibition at 50 µM: 99.9%
[2]; Severe acute respiratory syndrome coronavirus 2, Vero C1008, read-out: EC90 (Confidence 95%), Vero-E6, B.1
  EC90: 2.48 µM
[2]; Severe acute respiratory syndrome coronavirus 2, Vero C1008, MOI 0.05, 48 h
  EC50: 2.19 µM
[3]; read-out: EC50 (Confidence 95%), replicon
  EC50: 0.433 µM
[3]; read-out: EC90 (Confidence 95%), replicon
  EC90: 0.576 µM
[4]; Severe acute respiratory syndrome coronavirus 2, Vero C1008, 48 h, read-out: EC50 in Vero E6 cells, SARS-CoV-2 (Beta, B.1.351)
  EC50: 2.85 µM
[4]; Severe acute respiratory syndrome coronavirus 2, Vero C1008, beta, 0.01 uM, Vero E6, replicates
  inhibition at 0.01 µM: 0%
[4]; Severe acute respiratory syndrome coronavirus 2, Vero C1008, beta, 0.1 uM, Vero E6, replicates
  inhibition at 0.1 µM: 0%
[4]; Severe acute respiratory syndrome coronavirus 2, Vero C1008, beta, 0.25 uM, Vero E6, replicates
  inhibition at 0.25 µM: 0%
[4]; Severe acute respiratory syndrome coronavirus 2, Vero C1008, beta, 0.5 uM, Vero E6, replicates
  inhibition at 0.5 µM: 0%
[4]; Severe acute respiratory syndrome coronavirus 2, Vero C1008, beta, 1 uM, Vero E6, replicates
  inhibition at 1 µM: 0%
[4]; Severe acute respiratory syndrome coronavirus 2, Vero C1008, beta, 5 uM, Vero E6, replicates
  inhibition at 5 µM: 99.7%
[4]; Severe acute respiratory syndrome coronavirus 2, Vero C1008, beta, 10 uM, Vero E6, replicates
  inhibition at 10 µM: 99.9%
[4]; Severe acute respiratory syndrome coronavirus 2, Vero C1008, read-out: EC90 (Confidence 95%), Vero-E6, Beta B.1.351
  EC90: 3.41 µM
[4]; 0.01 uM, Vero E6, replicates
  % Inhibition: 0%
[4]; 0.1 uM, Vero E6, replicates
  % Inhibition: 0%
[4]; 0.25 uM, Vero E6, replicates
  % Inhibition: 0%
[4]; 0.5 uM, Vero E6, replicates
  % Inhibition: 0%
[4]; 1 uM, Vero E6, replicates
  % Inhibition: 0%
[4]; 2 uM, Vero E6, replicates
  % Inhibition: 6.056% and 0%
[4]; 5 uM, Vero E6, replicates
  % Inhibition: 99.5481%
[4]; 10 uM, Vero E6, replicates
  % Inhibition: 99.9499%
[4]; 50 uM, Vero E6, replicates
  % Inhibition: 99.982%
[5]; Severe acute respiratory syndrome coronavirus 2, Huh-7, read-out: EC50 (Confidence 95%) in Huh7 cells
  EC50: 0.905 µM
[5]; Severe acute respiratory syndrome coronavirus 2, Huh-7, read-out: EC90 (Confidence 95%) in Huh7 cells
  EC90: 1.17 µM
[6]
  CC50 at 48 h: > 50 µM
[7]; 1 μM compound, 1 µM
  cell viability (% of control): 88.7524 % of control and 100.803 % of control and 120.919 % of control
[7]; 2 μM compound, 2 µM
  cell viability (% of control): 88.0108 % of control and 98.9031 % of control and 128.104 % of control
[7]; 5 μM compound, 5 µM
  cell viability (% of control): 90.8382 % of control and 109.656 % of control and 135.798 % of control
[7]; 10 μM compound, 10 µM
  cell viability (% of control): 94.2217 % of control and 115.404 % of control and 120.363 % of control
[7]; 20 μM compound, 20 µM
  cell viability (% of control): 80.7802 % of control and 92.136 % of control and 131.024 % of control
[7]; 50 μM compound, 50 µM
  cell viability (% of control): 71.9737 % of control and 85.3225 % of control and 97.3272 % of control
